Source: patent US20240238186A1, “Topical Compositions Comprising (Glyco)Sphingolipids and/or (Glyco)Ceramides” (CarboCode S.A., priority 2021, published 2024)

Columns and labels:
Format in all cases: cell-based
[1] = tested on: Reconstructed Human Epidermis (RHE); test: Proteomic analysis (LC-MS/MS) of Reconstructed Human Epidermis topically treated with lipid in base emulsion; conditions: lipid in base emulsion 24h, vs vehicle
Source text: FIGS. 1 to 5 show heatmaps using a log 2 scale with up- or downregulation of respective proteins upon treatment with 0,01% (01), 0,03% (03) and 0,15% (15) of respective ceramide in vehicle as compared to vehicle without ceramide (VEH) (FIG. 1: LacCerNS, FIG. 2: GlcCerNS, FIG. 3: CerNP. FIG. 4: CerNG, FIG. 5: CerNS); detailed experimental setup explained in Example 4.
Material and methods: Reconstructed Human Epidermis (RHE) cell culture was used, as this system mimics the in vivo 3D structure of epidermal tissue as well as the conditions and processes that occur in normal epidermis. RHE were cultured using the medium provided by the manufacturer until analysis. RHE were maintained in survival for 24 hours, before RHE were topically treated with lipid in a base emulsion for 24h. 3 RHE were treated with base emulsion alone and 3 more remained untreated as a control batch (Ctrl). RHE were incubated under classical cell culture conditions (37° C., 5% CO2).
Sample preparation and LC-MS/MS analysis: Protein was extracted using the Pierce Total Protein Extraction Kit (Thermo Fisher) according to manufacturer's recommendations. The protein was mixed with Laemmli buffer and heated to 37° ° C. for 30 min. Protein concentration was determined by the BCA method and standardized for all samples. The samples were separated by SDS-PAGE and digested with trypsin overnight. The peptides generated were acidified and separated. The mass spectra were queried using Proteome Discoverer (version 2.5). The resulting MS/MS data were queried against the Homo sapiens proteome UP000005640 (20371 reviewed entries). Results were filtered based on unique peptides >2, and global peptide scores. Analyses were performed using Proteome Discoverer 2.5 to check for overall sample quality.
Bioinformatics and statistical analysis: Proteomic analysis returned a mean total of 34961 high-quality peptides corresponding to a mean 2422 identifiable and quantifiable RHE proteins among conditions. A summary of proteins differentially expressed within conditions is provided in Annexe 3. Proteins with a p-value≤0,05 in at least one of the concentrations tested for a lipid were considered significant and used for pairwise comparisons. Relevant proteins were classified by their biological processes and associated pathways using the publicly available gene ontology (GO) database provided by the Gene Ontology Consortium and Reactome. Interactome analysis was performed using Cytoscape combined with STRING.

[2] = tested on: Human epidermal keratinocytes; test: Gene expression in keratinocytes, qPCR; conditions: 200 ppm in DMSO, 1 week
Procedure: (§1) Human epidermal keratinocytes are obtained from a commercial vendor. The cells are isolated from juvenile foreskin or from adult normal human tissue collected from various sites that include face, breast, abdomen, and thigh. The cells are cultivated in a T25 flask using a commercial keratinocyte Growth Medium which is a serum-free medium and optimized for the in vitro cultivation of epidermal keratinocytes without feeder cells. A commercial growth supplement and calcium is added to a final concentration of 1.2 mM to induce differentiation.
(§2) Upon reaching cell confluence, the cells are treated with either 200 ppm glucosylceramide or 200 ppm lactosylceramide, each dissolved in dimethyl sulfoxide (DMSO) for 1 week. The cells are homogenised with 2 mL chloroform:methanol (2:1), and transferred to a vial containing Phosphate Buffered Saline (PBS). The homogeniser is rinsed twice with solvent and all rinses are together. The organic phase is evaporated to dryness.
Gene expression is determined by isolating RNA samples from the keratinocytes using a Qiagen RNeasy kit with DNase I digestion. Reverse transcription is performed using a high-capacity cDNA kit, cDNA samples of 40 ng are used for qPCR. Taqman gene expression assay is purchased commercially, and the qPCR reaction is performed using a fast amplifier. […] Relative gene expression is calculated by comparative CT method.

[3] = tested on: Human epidermal keratinocytes; test: Ceramide levels produced by keratinocytes, HPTLC; conditions: 200 ppm in DMSO, 1 week; compared to untreated keratinocytes
Procedure: as §1, §2
Ceramide levels produced by the keratinocytes are measured by a modified high-performance thin layer chromatography (HPTLC) method. […] The plates are stained with 3% copper acetate in 8% phosphoric acid and charred at 160° C. for the quantitation of ceramides. Quantification is performed against known quantities of Ceramide NP by laser scanning densitometry. Each plate is scanned at 425 nm and quantified using WinCATS software.

Structure (SMILES) | phosphomevalonate kinase protein regulation [1] | proteins of the mitochondrial respiratory chain, regulation [1] | syndecan-1 protein regulation [1] | ATP synthase subunit delta (mitochondrial) regulation [1] | ATP synthase subunit g (mitochondrial) regulation [1] | ATP-dependent zinc metalloprotease YME1L1 regulation [1] | NAD-dependent malic enzyme (mitochondrial) regulation [1] | ceramide synthase 4 protein regulation [1] | cytochrome c oxidase subunit 6C regulation [1] | IL8 gene expression [2] | TNF gene expression [2] | expression of the ABCA12 gene [2] | involucrin gene expression [2] | transglutaminase-1 gene expression [2] | β-glucocerebrosidase (GBA) expression [2] | Total ceramides in keratinocytes [3] | further results
CCCCCCCCCCCCCCCCCC(=O)N[C@@H](CO)[C@H](O)[C@H](O)CCCCCCCCCCCCCC [ceramide NP] | upregulation | upregulation | upregulation |  |  |  |  |  |  |  |  |  |  |  |  |  | NADH dehydrogenase [ubiquinone] iron-sulfur protein 8 (mitochondrial) regulation [1]: upregulation; long-chain-fatty-acid-CoA ligase 3 protein regulation [1]: upregulation; phosphopantothenate-cysteine ligase protein regulation [1]: upregulation
CCCCCCCCCCCCC/C=C/[C@@H](O)[C@H](CO[C@@H]1O[C@H](CO)[C@@H](O[C@@H]2O[C@H](CO)[C@H](O)[C@H](O)[C@H]2O)[C@H](O)[C@H]1O)NC(=O)CCCCCCCCCCCCCCCCC [lactosylceramide] | upregulation | upregulation | upregulation | upregulation | upregulation | upregulation | upregulation | upregulation | upregulation | reduced gene expression | reduced gene expression | increases | increase in expression | increase in expression | Up-regulation | elevated | cytochrome b-c1 complex subunit 9 regulation [1]: upregulation; cytochrome c oxidase subunit 2 regulation [1]: upregulation; cytochrome c oxidase subunit NDUFA4 regulation [1]: upregulation
CCCCCCCCCCCCCCCCCC(=O)N[C@@H](CO)[C@H](O)CCCCCCCCCCCCCCC [ceramide NG] | upregulation | upregulation |  | upregulation | upregulation |  |  | upregulation | upregulation |  |  |  |  |  |  |  | loricrin protein regulation [1]: upregulation; repetin protein regulation [1]: upregulation; small proline-rich protein 2D regulation [1]: upregulation
CCCCCCCCCCCCC/C=C/[C@@H](O)[C@H](CO)NC(=O)CCCCCCCCCCCCCCCCC [ceramide NS] | upregulation |  | upregulation |  |  |  |  |  |  |  |  |  |  |  |  |  | cornifin-B protein regulation [1]: upregulation; filaggrin-2 protein regulation [1]: upregulation; kallikrein-5 protein regulation [1]: upregulation
CCCCCCCCCCCCC/C=C/[C@@H](O)[C@H](CO[C@@H]1O[C@H](CO)[C@@H](O)[C@H](O)[C@H]1O)NC(=O)CCCCCCCCCCCCCCCCC [glucosyl ceramide] | upregulation | upregulation |  | upregulation | upregulation | upregulation | upregulation |  | upregulation | reduced gene expression | reduced gene expression | increases | increase in expression | increase in expression | Up-regulation | elevated | 3-ketodihydrosphingosine reductase protein regulation [1]: upregulation; NADH dehydrogenase [ubiquinone] 1 alpha subcomplex subunit 8 regulation [1]: upregulation; NADH dehydrogenase [ubiquinone] iron-sulfur protein 2 (mitochondrial) regulation [1]: upregulation; acetyl-coenzyme A synthetase (cytoplasmic) protein regulation [1]: upregulation; malonate-CoA ligase ACSF3 (mitochondrial) protein regulation [1]: upregulation
